Experimental data as given in US4124598A, “Psoralens” (Hoffmann-La Roche Inc., priority 1976, dated 1978).
pKd: −log10 of the molar value.

What was measured:
Calf thymus DNA = assay: Equilibrium dialysis, non-covalent binding to DNA; settings: for pKd: 0.01 M Tris, non-covalent binding; for DNA site saturation, one psoralen per base pairs: expected from KD and solubility; for (PS)/(S) for DNA in Saturated Solution: occupied/unoccupied binding sites; for times more strongly binding to DNA than methoxsalen: vs methoxsalen
Description: (§1) In order to establish the dissociation constants from DNA and RNA, the non-covalent binding was ascertained. Non-covalent binding determines the presence of the psoralen within the nucleic acid helix. Its presence is determined in the absence of any radiant energy. As noted before, radiant energy is necessary to activate the psoralen covalent binding reaction with nucleic acid base pairs.
(§2) To determine the non-covalent binding, Calf thymus DNA (Sigma Type I) was dissolved in a 0.01 M Tris 0.001 M EDTA pH 8.5 buffer at a concentration of 25 ug/ml. A quantity of this DNA solution was placed in a dialysis bag (pretreated by boiling in NaHCO3), and the various tritiated derivatives were added inside the bag in half the cases and outside the bag in the other half. The molar ratio of psoralen molecules to base pairs was approximately 1:25. The bags were placed in vials filled with 18 ml of buffer and put on a shaker for 48-60 hours. After this period, radioactivity was determined both inside and outside the bags and the optical density of the DNA solution measured. From this information, and the specific activity of each derivative, the amount of drug non-covalently bound to the DNA was determined. Binding of the derivatives to Drosophila melanogaster ribosomal RNA was measured in exactly the same manner.
(§3) The units of the dissociation constants are moles/liter. Solubilities and molar extinction coefficients (ε) were obtained in pure water, the equilibrium constants (KD) in 0.01 M Tris.

[1] = target: Drosophila melanogaster ribosomal RNA; assay: Equilibrium dialysis, non-covalent binding to RNA; settings: for pKd: 0.01 M Tris, non-covalent binding; for (PS)/(S) for RNA in Saturated Solution: occupied/unoccupied binding sites
Description: as §1, §2, §3

Solubility in pure water = format: physicochemical; settings: pure water
Description: In order to study solubilities and dissociation constants, it is most convenient to prepare tritiated derivatives of the psoralen compounds. Thus, well-known radiation counting methods may be utilized to monitor the presence of the psoralens in solutions, or in nucleic acids.
as §3

[2] = Molar extinction coefficient in pure water; format: physicochemical
Description: as §3

DNA (calf thymus) [3] = assay: Low intensity photoaddition (covalent binding) to DNA; settings: for A (footnote 1, shown as drawing 9) / B = percent of added psoralen covalently bound: 25 μg/ml DNA, psoralen:base pair 1:3; for moles of psoralen bound per mole of base pairs: 90 minutes irradiation
Description: (§4) The covalent binding of the psoralens to DNA and RNA was studied. To achieve covalent binding, it is necessary to supply radiant energy (light) to the binding sites. These studies were carried out as follows:
(§5) The DNA and RNA used in the covalent binding studies have been described previously. Samples of each nucleic acid were prepared at a concentration of 25 ug/ml in 0.01 m Tris 0.001 M EDTA buffer. The radioactive-psoralen derivatives were added in a ratio of one psoralen for every three base pairs. The irradiation was carried out in one of the two following devices.
The low intensity irradiations were performed with a modified slide projector which was fitted with a 400 watt General Electric mercury vapor lamp (H 400 A 33-1/T16). The image of the arc was focused on the same cell, jacketed by a cobaltous nitrate solution which was also used for the high intensity irradiations. The light intensity delivered to the sample in this device was 4 to 6 mw/cm^2. The high intensity irradiations were carried out in a device containing two of the sam 400 watt General Electric mercury vapor lamps which were mounted on either side of a double walled sample chamber at a distance between centers of 4.0 cm. The chamber was cooled to 10° C. by continuous circulation of a temperature regulated solution of cobaltous nitrate (40% w/w). The cobalt solution served as an ultraviolet filter which allowed a maximum transmittance of 365 nm light and a window from approximately 340-380 nm. The intensity of the light at the surface of the inner sample chamber was approximately 100 mw/cm^2. The nucleic acid-psoralen mixture was placed in the inner chamber where it was continuously stirred throughout the irradiation. […] Each aliquot was then extracted twice with chloroform/iso-amyl alcohol (24:1) to remove unreacted psoralen followed by exhaustive dialysis against 0.01 M Tris, 0.001 M EDTA buffer. The successful extraction of unbound psoralen by the chloroform-isoamyl alcohol required the aqueous phase to be at least 0.15 M in NaCl. Finally, the optical density of the nucleic-acid psoralen mixture was taken and its radioactivity determined, thus giving the amount of derivative covalently bound to the DNA or RNA. Taking samples, at spaced time intervals also permitted an assessment of the kinetics of the covalent binding.

DNA (calf thymus) [4] = assay: High intensity photoaddition (covalent binding) to DNA; settings: 25 μg/ml DNA, psoralen:base pair 1:3
Description: as §4, §5
(§6) The low intensity irradiations were performed with a modified slide projector which was fitted with a 400 watt General Electric mercury vapor lamp (H 400 A 33-1/T16). The image of the arc was focused on the same cell, jacketed by a cobaltous nitrate solution which was also used for the high intensity irradiations. The light intensity delivered to the sample in this device was 4 to 6 mw/cm^2. The high intensity irradiations were carried out in a device containing two of the sam 400 watt General Electric mercury vapor lamps which were mounted on either side of a double walled sample chamber at a distance between centers of 4.0 cm. The chamber was cooled to 10° C. by continuous circulation of a temperature regulated solution of cobaltous nitrate (40% w/w). The cobalt solution served as an ultraviolet filter which allowed a maximum transmittance of 365 nm light and a window from approximately 340-380 nm. The intensity of the light at the surface of the inner sample chamber was approximately 100 mw/cm^2. The nucleic acid-psoralen mixture was placed in the inner chamber where it was continuously stirred throughout the irradiation. Aliquots of each solution (derivative plus nucleic acid) were taken at 20, 40 and 60 minutes. Each aliquot was then extracted twice with chloroform/iso-amyl alcohol (24:1) to remove unreacted psoralen followed by exhaustive dialysis against 0.01 M Tris, 0.001 M EDTA buffer. The successful extraction of unbound psoralen by the chloroform-isoamyl alcohol required the aqueous phase to be at least 0.15 M in NaCl. Finally, the optical density of the nucleic-acid psoralen mixture was taken and its radioactivity determined, thus giving the amount of derivative covalently bound to the DNA or RNA. Taking samples, at spaced time intervals also permitted an assessment of the kinetics of the covalent binding.

[5] = tested on: RNA (Drosophila melanogaster ribosomal RNA); assay: High intensity photoaddition (covalent binding) to RNA; settings: 25 μg/ml RNA, psoralen:base pair 1:3
Description: as §4, §5, §6

[6] = tested on: vesicular stomatitis virus; format: cell-based, Vesicular stomatitis virus Indiana strain; settings: for effectiveness in inactivation of vesicular stomatitis virus vs 4,5',8-trimethyl psoralen: high dose rates, e.g., 30 μg/ml
DNA = assay: Reactivity with DNA (general statement); format: binding, calf
Description: as §4, §5
as §6, with “Each aliquot was then extracted twice with chloroform/iso-amyl alcohol (24:1) to remove unreacted psoralen followed by exhaustive dialysis against 0.01 M Tris, 0.001 M EDTA buffer. The successful extraction of unbound psoralen by the chloroform-isoamyl alcohol required the aqueous phase to be at least 0.15 M in NaCl.” left out, “Taking samples, at spaced time intervals also permitted an assessment of the kinetics of the covalent binding.” left out

Compound	pKd (Calf thymus DNA)	DNA site saturation, one psoralen per base pairs (Calf thymus DNA; saturated solution)	(PS)/(S) for DNA in Saturated Solution (Calf thymus DNA; saturated solution)	pKd [1]	(PS)/(S) for RNA in Saturated Solution [1]	solubility (Solubility in pure water) [µg/mL]	solubility (Solubility in pure water; molar) [µM]	Extinction coefficient ε, 250 nm [2] [L/mol/cm]	A (footnote 1, shown as drawing 10) (DNA (calf thymus) [4]; 20 min irradiation)	B = percent of added psoralen covalently bound (DNA (calf thymus) [4]; 20 min irradiation) [%]	A (footnote 1, shown as drawing 10) (DNA (calf thymus) [4]; 40 min irradiation)	B = percent of added psoralen covalently bound (DNA (calf thymus) [4]; 40 min irradiation) [%]	A (footnote 1, shown as drawing 10) (DNA (calf thymus) [4]; 60 min irradiation)	B = percent of added psoralen covalently bound (DNA (calf thymus) [4]; 60 min irradiation) [%]	A (footnote 1, shown as drawing 11) ([5]; 20 min irradiation)	B = percent of added psoralen covalently bound ([5]; 20 min irradiation) [%]	A (footnote 1, shown as drawing 11) ([5]; 40 min irradiation)	B = percent of added psoralen covalently bound ([5]; 40 min irradiation) [%]	A (footnote 1, shown as drawing 11) ([5]; 60 min irradiation)	B = percent of added psoralen covalently bound ([5]; 60 min irradiation) [%]	also measured
Cc1oc2c(C)c3oc(=O)cc(C)c3cc2c1CO [4'-hydroxymethyl-4,5',8-trimethyl psoralen]	3.54	one psoralen per three base pairs	0.55	3.00	0.16	41	160	25000	9.1	33.0	9.2	32.6	9.1	33.0	26.3	11.5	24.8	12.1	23.5	13.0	(PS)/(S) for DNA in Saturated Solution (Calf thymus DNA; saturated solution, listed as 4'-hydroxmethyl trioxsalen): 0.5; times more strongly binding to DNA than methoxsalen (Calf thymus DNA): 10 times; A (footnote 1, shown as drawing 9) (DNA (calf thymus) [3]; 5 min irradiation): 89.0; B = percent of added psoralen covalently bound (DNA (calf thymus) [3]; 5 min irradiation): 3.0%; A (footnote 1, shown as drawing 9) (DNA (calf thymus) [3]; 10 min irradiation): 59.6; B = percent of added psoralen covalently bound (DNA (calf thymus) [3]; 10 min irradiation): 4.6%; A (footnote 1, shown as drawing 9) (DNA (calf thymus) [3]; 30 min irradiation): 26.0; B = percent of added psoralen covalently bound (DNA (calf thymus) [3]; 30 min irradiation): 10.3%; A (footnote 1, shown as drawing 9) (DNA (calf thymus) [3]; 60 min irradiation): 19.5; B = percent of added psoralen covalently bound (DNA (calf thymus) [3]; 60 min irradiation): 13.8%; A (footnote 1, shown as drawing 9) (DNA (calf thymus) [3]; 90 min irradiation): 17.2; B = percent of added psoralen covalently bound (DNA (calf thymus) [3]; 90 min irradiation): 15.7%; moles of psoralen bound per mole of base pairs (DNA (calf thymus) [3]): 0.06 moles per mole of base pairs; remains free in the solution (DNA (calf thymus) [3]; after 90 minutes of irradiation): more than 80%; effectiveness in inactivation of vesicular stomatitis virus vs 4,5',8-trimethyl psoralen [6]: nearly one thousand times more effective; reactivity with DNA (DNA): excellent reactivity with DNA
COCc1c(C)oc2c(C)c3oc(=O)cc(C)c3cc12 [4'-methoxymethyl-4,5',8-trimethyl psoralen]	4.03	one psoralen per three base pairs	0.39	3.00	0.037	10	37	21000	14.1	21.3	14.3	21.0	13.8	21.7	264.2	1.2	216.8	1.4	183.4	1.6	(PS)/(S) for DNA in Saturated Solution (Calf thymus DNA; saturated solution, listed as 4'-methoxymethyl trioxsalen): 0.5; times more strongly binding to DNA than methoxsalen (Calf thymus DNA): 10 times; effectiveness in inactivation of vesicular stomatitis virus vs 4,5',8-trimethyl psoralen [6]: nearly one thousand times more effective; reactivity with DNA (DNA): excellent reactivity with DNA
Cc1cc2cc3c(C)cc(=O)oc3c(C)c2o1 [trioxsalen, 4,5',8-trimethyl psoralen, reference compound]	4.25	–	0.046	4.00	0.026	0.6	2.6	18000	11.6	25.9	10.6	28.3	12.2	24.6	23.1	13.0	21.6	13.9	20.6	14.8	one psoralen per n base pairs at equilibrium (best achievable) (Calf thymus DNA; saturated solution): ~20 base pairs; times stronger binding to DNA than 4'-hydroxymethyl trioxsalen (Calf thymus DNA; vs 4'-hydroxymethyl trioxsalen (trioxsalen binding)): 5 times; times stronger binding to DNA than 4'-methoxymethyl trioxsalen (Calf thymus DNA; vs 4'-methoxymethyl trioxsalen): 2 times; rate of reaction with DNA / initial rate of photochemical binding (DNA (calf thymus) [3]): greater initial rate of photochemical binding than 4'-hydroxymethyl trioxsalen; A (footnote 1, shown as drawing 9) (DNA (calf thymus) [3]; 5 min irradiation): 19.7; B = percent of added psoralen covalently bound (DNA (calf thymus) [3]; 5 min irradiation): 15.5%; A (footnote 1, shown as drawing 9) (DNA (calf thymus) [3]; 10 min irradiation): 15.5; B = percent of added psoralen covalently bound (DNA (calf thymus) [3]; 10 min irradiation): 19.7%; A (footnote 1, shown as drawing 9) (DNA (calf thymus) [3]; 30 min irradiation): 13.7; B = percent of added psoralen covalently bound (DNA (calf thymus) [3]; 30 min irradiation): 22.1%; A (footnote 1, shown as drawing 9) (DNA (calf thymus) [3]; 60 min irradiation): 12.8; B = percent of added psoralen covalently bound (DNA (calf thymus) [3]; 60 min irradiation): 23.6%; A (footnote 1, shown as drawing 9) (DNA (calf thymus) [3]; 90 min irradiation): 10.6; B = percent of added psoralen covalently bound (DNA (calf thymus) [3]; 90 min irradiation): 28.5%; moles of psoralen bound per mole of base pairs (DNA (calf thymus) [3]): 0.09 moles per mole of base pairs; effect of increasing concentration on ability to inactivate the virus ([6]; FIG. 1, from 10 μg/ml to 30 μg/ml): no effect on its ability to inactivate the virus
